Test system: 429239-143-T-J1-PDC complex spheroid viability
Assay: Anticancer human tumor 429239-143-T-J1-PDC patient-derived small cell lung carcinoma cell line growth inhibition [POLQ]
Conditions: for IC50: curve of first compound; for viability, T/C: stronger effect = lower value
Description: Multicellular complex tumor spheroid response to Polymerase (POL) inhibitors (novobiocin, ART-558, RP6685) in combination with a variety of drugs and investigational agents in selected tumor cell lines
The POL inhibitors (novobiocin, ART-558, and RP6685) were evaluated both individually and in combination with standard of care and investigational anticancer small molecules within a complex spheroid model of solid tumors. . Complex spheroids include a stromal component modeled by human endothelial cells (HUVEC) and fibroblasts modeled by human mesenchymal stem cells (MSCs). The concentration ranges selected for each drug and investigational agent were based upon clinically achievable concentrations if the clinical Cmax of the agent was known.
Compounds. The drugs and investigational agents: novobiocin (NSC847541), ART-558 (NSC835418), RP-6685 (NSC848927), peposertib (NSC802822), ceralasertib (NSC780249), elimusertib (NSC800525), camonsertib (NSC841442), AZD-1390 (NSC803789), olaparib (NSC753686), talazoparib (NSC767125), rucaparib (NSC756644), sotorasib (NSC818433), MRTX-1133 (NSC836407), SN-38 (NSC673596), topotecan (NSC609699), epotoside (NSC141540), doxorubicin (NSC123127), gemcitabine (NSC613327), 5-fluorouracil (NSC19893), paclitaxel (NSC125973), vemurafenib (NSC761431), MSA-2 (NSC828583), SN-011 (NSC837082), adavosertib (NSC754352), prexasertib (NSC758257), carboplatin (NSC241240) and oxaliplatin (NSC266046), were obtained from the National Cancer Institute (NCI) Developmental Therapeutics Program Chemical Repository (21). The FDA-approved anticancer drug set is available from the Developmental Therapeutics Program at https://dtp.cancer.gov/organization/dscb/obtaining/. […] The stock solutions were prepared in dimethyl sulfoxide (DMSO, Sigma-Aldrich, St. Louis, MO, cat. D2650), except for the platinum compounds which were prepared in saline (Quality Biological, Gaithersburg, MD, cat. 114-055-101), at 800-fold the tested concentration and stored at -70 degrees C prior to their use. All drugs and investigational agents were tested over a range starting from a high concentration at or near the clinical Cmax and decreasing in half-log increments. If the clinical Cmax for an agent had not been determined, the highest concentration tested was 10 microM, except for SN-38, which was tested at a high concentration of 1 microM.
Cell Culture. All cells were maintained in an incubator at 37 degrees C and 5% CO2 with 95% humidity. The PDC lines were cultured according to standard operating procedures established by the NCI PDMR (https://pdmr.cancer.gov). Table 3 of the manuscript, lists the cell lines along with the number of the three cell types plated to form the mct-spheroids and media for tumor cell growth. After thawing, all PDC lines, except 997537-175-T-J1-PDC and 415267-285-R-J2-PDC, were cultured in Matrigel-coated flasks prepared with a working solution of 1X Ham's F-12 nutrient mix, without supplementation (Thermo Fisher Scientific, cat. 11765054), 100 U/mL penicillin-streptomycin (Thermo Fisher Scientific, cat. 15140122), and 2.5% Matrigel (Corning Inc., Corning, NY, cat. 354248) for the first three passages. The two PDC lines 997537-175-T-J1-PDC and 415267-285-R-J2-PDC were cultured on uncoated flasks. The 857933-349-R-J2-PDC line was cultured in 6C/Colon 1B media containing advanced DMEM/F-12 (Thermo Fisher Scientific, cat. 12634028), 10 mM HEPES (Thermo Fisher Scientific, cat. 15630080), 1X GlutaMAX supplement (Thermo Fisher Scientific, cat. 35050061), 0.1 mg/mL primocin (InvivoGen, San Diego, CA, cat. ant-pm-2), 10% defined fetal bovine serum, heat inactivated (HyClone Laboratories Inc., Logan, UT, cat. SH30070.03HI), 50% L-WRN conditioned media (ATCC, cat. CRL-3276), 1.25 mM N-Acetyl-L-cysteine (Sigma-Aldrich, cat. A9165), 10 mM nicotinamide (Sigma-Aldrich, cat. N0636), 1X B-27 supplement (Thermo Fisher Scientific, cat. 17504044), 1X N-2 supplement (Thermo Fisher Scientific, cat. […]
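Note: luminescence signal used as surrogate measure of viable cells; spheroids exposed to compounds for seven days before readout.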
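Throughout, for viability, T/C: 100% = DMSO vehicle control viability as luminescence relative to vehicle.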

`COc1cccc2c1C(=O)c1c(O)c3c(c(O)c1C2=O)CC(O)(C(=O)CO)CC3OC1CC(N)C(O)C(C)O1` (configuration not stated) + COC1C(OC(N)=O)C(O)C(Oc2ccc3c(O)c(NC(=O)c4ccc(O)c(CC=C(C)C)c4)c(=O)oc3c2C)OC1(C)C gave an IC50 (second compound 0.0316 µM) of 41.1 nM, an IC50 (second compound 0.1 µM) of 36.4 nM and an IC50 (second compound 0.316 µM) of 48.2 nM. It also gave an IC50 (second compound 1 µM) of 37.6 nM, an IC50 (second compound 3.16 µM) of 34.6 nM and an IC50 (second compound 10 µM) of 34 nM. For the same compound, the viability, T/C (second compound 0.0316 µM, first compound 0.0316 µM) was 60.4%, the viability, T/C (second compound 0.0316 µM, first compound 0.1 µM) was 13.3% and the viability, T/C (second compound 0.0316 µM, first compound 0.316 µM) was 14.5%. It also gave a viability, T/C (second compound 0.0316 µM, first compound 1 µM) of 0.23%, a viability, T/C (second compound 0.0316 µM, first compound 3.16 µM) of 0.15% and a viability, T/C (second compound 0.0316 µM, first compound 10 µM) of 0.13%. The viability, T/C (second compound 0.1 µM, first compound 0.0316 µM) was 55.3%, the viability, T/C (second compound 0.1 µM, first compound 0.1 µM) was 15.8% and the viability, T/C (second compound 0.1 µM, first compound 0.316 µM) was 12.3%. It also gave a viability, T/C (second compound 0.1 µM, first compound 1 µM) of 0.13%, a viability, T/C (second compound 0.1 µM, first compound 3.16 µM) of 0.08% and a viability, T/C (second compound 0.1 µM, first compound 10 µM) of 0.1%. The viability, T/C (second compound 0.316 µM, first compound 0.0316 µM) was 68.8%, the viability, T/C (second compound 0.316 µM, first compound 0.1 µM) was 14.4% and the viability, T/C (second compound 0.316 µM, first compound 0.316 µM) was 14.2%. The viability, T/C (second compound 0.316 µM, first compound 1 µM) was 0.13%, the viability, T/C (second compound 0.316 µM, first compound 3.16 µM) was 0.12% and the viability, T/C (second compound 0.316 µM, first compound 10 µM) was 0.12%. For the same compound, the viability, T/C (second compound 1 µM, first compound 0.0316 µM) was 56.3%, the viability, T/C (second compound 1 µM, first compound 0.1 µM) was 16.2% and the viability, T/C (second compound 1 µM, first compound 0.316 µM) was 12.7%. The viability, T/C (second compound 1 µM, first compound 1 µM) was 0.13%, the viability, T/C (second compound 1 µM, first compound 3.16 µM) was 0.16% and the viability, T/C (second compound 1 µM, first compound 10 µM) was 0.48%. For the same compound, the viability, T/C (second compound 3.16 µM, first compound 0.0316 µM) was 53.5%, the viability, T/C (second compound 3.16 µM, first compound 0.1 µM) was 15.6% and the viability, T/C (second compound 3.16 µM, first compound 0.316 µM) was 11.9%. The viability, T/C (second compound 3.16 µM, first compound 1 µM) was 0.14%, the viability, T/C (second compound 3.16 µM, first compound 3.16 µM) was 0.18% and the viability, T/C (second compound 3.16 µM, first compound 10 µM) was 0.3%. It also gave a viability, T/C (second compound 10 µM, first compound 0.0316 µM) of 52.8%, a viability, T/C (second compound 10 µM, first compound 0.1 µM) of 14% and a viability, T/C (second compound 10 µM, first compound 0.316 µM) of 14.8%. The viability, T/C (second compound 10 µM, first compound 1 µM) was 0.24%, the viability, T/C (second compound 10 µM, first compound 3.16 µM) was 0.29% and the viability, T/C (second compound 10 µM, first compound 10 µM) was 0.22%.

— PubChem BioAssay AID1963845 (Molecular Pharmacology Branch, DTP, NCI, 2024)
